Laboratory results as given in article PMC8501799, “Constitutive signal bias mediated by the human GHRHR splice variant 1” (Proceedings of the National Academy of Sciences of the …, 2021).

Legend:
GHRHR Δ32 = biological target: T1, GHRHR Δ32 (Homo sapiens, UniProt Q02643); test: cAMP accumulation; format: cell-based; details: Table S2; operational model; τ corrected by cell surface expression; relative to WT GHRHR; mean ± SEM
T1 construct: expressed in transfected cells; host or cells: HEK293T
Description: Concentration-response curves were evaluated with a three-parameter logistic equation.

22Rv1 cells [1] = test: cAMP accumulation in prostate cancer cells; format: cell-based, human; details: concentration-response, Fig. 1E; 22Rv1 express high levels of SV1
Description: (§1) Spodoptera frugiperda (Sf9) insect cells (Expression Systems) were grown in ESF 921 serum-free medium (Expression Systems) at 27 °C and 120 rpm. HEK293T cells were purchased from American Type Culture Collection (ATCC), cultured in Dulbecco’s modified Eagle’s medium (DMEM; Life Technologies), supplemented with 10% fetal bovine serum (FBS; Gibco), and maintained in a humidified chamber with 5% CO2 at 37 °C. The PC3 prostate cancer cell line (ATCC) was cultured in F12 medium supplemented with 10% FBS and maintained in a humidified chamber with 5% CO2 at 37 °C. 22Rv1 and LNCaP human prostate cancer cells (ATCC) were cultured in Roswell Park Memorial Institute (RPMI)-1640 medium supplemented with 10% FBS and maintained in a humidified atmosphere containing 5% CO2 at 37 °C.
(§2) GHRH-stimulated cAMP accumulation was measured by a LANCE Ultra cAMP kit (PerkinElmer). Briefly, HEK293T cells (24 h after transfection with SV1 or GHRHR) or prostate cancer cells were digested by 0.2% (wt/vol) EDTA and washed once with Dulbecco’s phosphate-buffered saline (PBS). Cells were then resuspended with stimulation buffer (Hanks’ balanced salt solution [HBSS] supplemented with 5 mM HEPES, 0.5 mM IBMX, and 0.1% [wt/vol] bovine serum albumin [BSA], pH 7.4) to a density of 0.6 million cells per milliliter and added to 384-well white plates (3,000 cells per well). […] The reaction was stopped by adding 5 μL Eu-cAMP tracer and 5 μL ULight-anti-cAMP. After 1 h RT incubation, TR-FRET signals (excitation: 320 nm, emission: 615 and 665 nm) were measured by an Envision plate reader (PerkinElmer). cAMP concentrations were interpolated by a standard curve.

LNCaP cells = test: cAMP accumulation in prostate cancer cells; format: cell-based, human; details: concentration-response, Fig. 1E; LNCaP express high levels of GHRHR
Description: as §1, §2

PC3 cells = test: cAMP accumulation in prostate cancer cells; format: cell-based, human; details: concentration-response, Fig. 1E; PC3 low expression of both
Description: as §1, §2

[2] = system: GHRHR mutants (F82, F85, D274, E223, N296, L337, F338 to alanine); test: β-arrestin 1 recruitment (BRET), GHRHR single-point alanine mutants; format: cell-based, human; details: single residue to alanine; 250 μM GHRH; HEK293T; Fig. 5G
Description: HEK293T cells were seeded at a density of 30,000 cells per well into 96-well culture plates pretreated with poly-D-lysine hydrobromide. After incubation for 24 h to reach 70% to 80% confluence, the cells were transiently transfected with HA-Flag-GHRHR-Rluc8 or HA-Flag-SV1-Rluc8 and β-arrestin 1/2-Venus at a 1:9 mass ratio using lipofectamine 3000 reagent (Invitrogen) and cultured for another 24 h. Thereafter, cells were washed once and incubated for 30 min at 37 °C with HBSS buffer (pH 7.4) supplemented with 0.1% BSA and 10 mM HEPES. Five micromolars of coelenterazine h (YEASEN Biotechnology) was then added and incubated for 5 min in the dark. The bioluminescence resonance energy transfer (BRET) signals were detected with an Envision plate reader by calculating the ratio of emission at 535 nm over emission at 470 nm.

22Rv1 cells [3] = test: ERK1/2 phosphorylation in prostate cancer cells; format: cell-based, human; details: 1 μM GHRH; among three prostate cancer cell lines
Description: as §1
ERK1/2 phosphorylation was detected with the AlphaScreen SureFire ERK1/2 assay kit (PerkinElmer). […] The plate was incubated in the dark at 37 °C for 1 h, after which the fluorescence signal was measured by an Envision plate reader using standard AlphaScreen settings.
The cells were then lysed with radioimmunoprecipitation assay lysis buffer (Sigma-Aldrich) on ice for 5 min and centrifuged at 12,000 rpm for 15 min. Protein concentration of the supernatant was determined by BCA protein assay kit (Beyotime). […]

cell cycle = test: Cell cycle analysis (propidium iodide, flow cytometry); format: cell-based; details: 1 μM GHRH, 6 h
Description: Following the treatment, the cells were digested by trypsin and collected by centrifugation. Cell pellets were washed with PBS and fixed with 70% (vol/vol) ethanol at 4 °C overnight. Cells were again collected by centrifugation and washed twice with PBS. They were then resuspended in PBS containing 0.2% Triton X-100, 50 μg/mL propidium iodide (PI), and […] RNase A and incubated for 30 min at 4 °C in the dark. After incubation, fluorescence intensity was measured with a NovoCyte flow cytometer (Acea Biosciences). Cells were gated for PI staining and cell accumulation in G1, and S and G2/M phases were calculated using the NovoExpress software.

[4] = system: GHRHR ECD mutants (L34, L62, F82, F85 to alanine); test: cAMP accumulation, ECD alanine mutants of GHRHR; format: cell-based, human; details: any or all of four ECD residues (L34, L62, F82, F85) to alanine; HEK293T
Description: as §2

T1 sequence (Q02643 33-423 limits assumed, stated change not applied): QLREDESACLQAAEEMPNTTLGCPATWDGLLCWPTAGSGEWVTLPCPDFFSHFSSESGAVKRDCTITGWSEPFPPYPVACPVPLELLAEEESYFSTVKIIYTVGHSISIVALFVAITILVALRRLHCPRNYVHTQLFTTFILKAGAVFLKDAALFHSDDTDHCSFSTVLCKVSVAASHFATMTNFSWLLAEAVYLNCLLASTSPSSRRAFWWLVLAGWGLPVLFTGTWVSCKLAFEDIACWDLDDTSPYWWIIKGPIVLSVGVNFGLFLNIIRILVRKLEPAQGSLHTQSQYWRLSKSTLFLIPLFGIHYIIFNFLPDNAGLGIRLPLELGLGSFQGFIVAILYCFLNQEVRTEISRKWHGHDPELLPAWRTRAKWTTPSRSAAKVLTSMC

CC[C@H](C)[C@H](NC(=O)[C@H](C)NC(=O)[C@H](CC(=O)O)NC(=O)[C@H](C)NC(=O)[C@@H](N)Cc1ccc(O)cc1)C(=O)N[C@@H](Cc1ccccc1)C(=O)N[C@H](C(=O)N[C@@H](CC(N)=O)C(=O)N[C@@H](CO)C(=O)N[C@@H](Cc1ccc(O)cc1)C(=O)N[C@@H](CCCNC(=N)N)C(=O)N[C@@H](CCCCN)C(=O)N[C@H](C(=O)N[C@@H](CC(C)C)C(=O)NCC(=O)N[C@@H](CCC(N)=O)C(=O)N[C@@H](CC(C)C)C(=O)N[C@@H](CO)C(=O)N[C@@H](C)C(=O)N[C@@H](CCCNC(=N)N)C(=O)N[C@@H](CCCCN)C(=O)N[C@@H](CC(C)C)C(=O)N[C@@H](CC(C)C)C(=O)N[C@@H](CCC(N)=O)C(=O)N[C@@H](CC(=O)O)C(=O)N[C@H](C(=O)N[C@@H](CCSC)C(=O)N[C@@H](CO)C(=O)N[C@@H](CCCNC(=N)N)C(=O)N[C@@H](CCC(N)=O)C(=O)N[C@@H](CCC(N)=O)C(=O)NCC(=O)N[C@@H](CCC(=O)O)C(=O)N[C@@H](CO)C(=O)N[C@@H](CC(N)=O)C(=O)N[C@@H](CCC(N)=O)C(=O)N[C@@H](CCC(=O)O)C(=O)N[C@@H](CCCNC(=N)N)C(=O)NCC(=O)N[C@@H](C)C(=O)N[C@@H](CCCNC(=N)N)C(=O)N[C@@H](C)C(=O)N[C@@H](CCCNC(=N)N)C(=O)N[C@@H](CC(C)C)C(N)=O)[C@@H](C)CC)C(C)C)[C@@H](C)O [GHRH, growth hormone–releasing hormone]
ΔLog (τ/KA) (GHRHR Δ32): -3.23 ± 0.04 | cAMP response (22Rv1 cells [1]): either markedly reduced or marginal cAMP responses | cAMP response (LNCaP cells): strongest cAMP response | cAMP response (PC3 cells): either markedly reduced or marginal cAMP responses | β-arrestin 1 recruitment [2]: significantly increased the capability of GHRHR to recruit β-arrestin 1 | pERK1/2 response (22Rv1 cells [3]): markedly stronger and longer pERK1/2 response | cells in G1 phase (cell cycle; decreased from 46.6): 32.8% | cells in G2/M phase (cell cycle; increased from 22.8): 37.7% | GHRHR-elicited cAMP responses [4]: reduced GHRHR-elicited cAMP responses
